Measured values from publication PMC11087554, “The STING agonist IMSA101 enhances chimeric antigen receptor T cell function by inducing IL-18 secretion” (Nature Communications, 2024).

Target: T1, STING (stimulator of interferon genes) (Homo sapiens, UniProt Q86WV6)
T1 construct: gene STING1; endogenous STING in THP1-ISG-luc cells
Assay: THP1-ISG-luc ISRE reporter assay with PFO permeabilisation; IFN-beta response lost in STING-KO THP1 cells
Type: cell-based

T1 sequence (Q86WV6 whole entry, looked up): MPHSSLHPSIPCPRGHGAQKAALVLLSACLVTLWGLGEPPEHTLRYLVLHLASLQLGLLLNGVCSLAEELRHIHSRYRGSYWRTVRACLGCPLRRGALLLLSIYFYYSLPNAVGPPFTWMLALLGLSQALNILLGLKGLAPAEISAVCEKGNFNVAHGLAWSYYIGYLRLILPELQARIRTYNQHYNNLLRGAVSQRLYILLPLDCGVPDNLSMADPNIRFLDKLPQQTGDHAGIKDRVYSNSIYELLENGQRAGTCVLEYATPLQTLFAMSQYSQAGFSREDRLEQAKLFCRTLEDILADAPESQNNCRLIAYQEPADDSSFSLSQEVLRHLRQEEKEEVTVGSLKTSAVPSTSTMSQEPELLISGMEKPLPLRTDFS

## IMSA101
  EC50: 20 to 30 nM
